Legend:
[1] = system: Mast/stem cell growth factor receptor Kit (Homo sapiens), P10721 [D816V]; test: (§1) Selectivity interaction (KinomeScan (DiscoverX)) EUB0001049a KIT; conditions: at 1 µM
[2] = system: Mast/stem cell growth factor receptor Kit (Homo sapiens), P10721 [A829P]; test: as §1; conditions: at 1 µM
[3] = system: Mast/stem cell growth factor receptor Kit (Homo sapiens), P10721 [L576P]; test: as §1; conditions: at 1 µM
[4] = system: Mast/stem cell growth factor receptor Kit (Homo sapiens), P10721 [V559D]; test: as §1; conditions: at 1 µM
Mast/stem cell growth factor receptor Kit (Homo sapiens), P10721 [V559D], sequence (P10721 whole entry V559D): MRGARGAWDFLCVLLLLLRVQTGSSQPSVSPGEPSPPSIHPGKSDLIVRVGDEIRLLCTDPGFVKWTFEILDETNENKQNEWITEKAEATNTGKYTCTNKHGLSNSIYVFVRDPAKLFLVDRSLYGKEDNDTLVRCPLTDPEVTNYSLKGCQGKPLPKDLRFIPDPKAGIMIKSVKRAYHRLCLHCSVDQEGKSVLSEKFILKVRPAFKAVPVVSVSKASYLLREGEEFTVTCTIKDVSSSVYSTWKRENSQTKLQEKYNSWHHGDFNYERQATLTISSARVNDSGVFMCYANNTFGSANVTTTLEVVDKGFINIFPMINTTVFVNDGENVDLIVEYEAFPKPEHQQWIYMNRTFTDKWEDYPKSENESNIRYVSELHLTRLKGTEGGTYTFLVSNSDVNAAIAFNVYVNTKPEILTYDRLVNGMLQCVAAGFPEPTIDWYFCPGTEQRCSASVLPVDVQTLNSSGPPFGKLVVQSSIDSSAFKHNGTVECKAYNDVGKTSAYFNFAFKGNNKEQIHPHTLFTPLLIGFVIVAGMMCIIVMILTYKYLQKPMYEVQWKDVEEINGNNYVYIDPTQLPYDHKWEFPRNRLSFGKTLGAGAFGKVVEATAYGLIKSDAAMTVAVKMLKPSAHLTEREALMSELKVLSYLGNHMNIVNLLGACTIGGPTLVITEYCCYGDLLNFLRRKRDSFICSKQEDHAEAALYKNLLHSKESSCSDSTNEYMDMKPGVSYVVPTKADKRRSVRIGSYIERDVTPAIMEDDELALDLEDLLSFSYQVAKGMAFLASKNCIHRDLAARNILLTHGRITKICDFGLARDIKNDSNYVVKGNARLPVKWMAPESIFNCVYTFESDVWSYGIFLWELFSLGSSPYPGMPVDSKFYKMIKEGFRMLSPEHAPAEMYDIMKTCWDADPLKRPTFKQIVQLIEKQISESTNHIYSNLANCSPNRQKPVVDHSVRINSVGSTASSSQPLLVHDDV

[5] = system: Mast/stem cell growth factor receptor Kit (Homo sapiens), P10721 [V559D,V654A]; test: as §1; conditions: at 1 µM
Mast/stem cell growth factor receptor Kit (Homo sapiens), P10721 [V559D,V654A], sequence (P10721 whole entry V559D/V654A): as the sequence (P10721 whole entry V559D) above, with V654A counted along it

[6] = system: Mast/stem cell growth factor receptor Kit (Homo sapiens), P10721 [D816H]; test: as §1; conditions: at 1 µM
Mast/stem cell growth factor receptor Kit (Homo sapiens), P10721 [D816H], sequence (P10721 whole entry D816H): as the sequence (P10721 whole entry V559D) above, with D559V, D816H counted along it

[7] = biological target: Mast/stem cell growth factor receptor Kit (Homo sapiens, UniProt P10721); test: as §1; conditions: at 1 µM
Mast/stem cell growth factor receptor Kit, sequence (P10721 whole entry): as the sequence (P10721 whole entry V559D) above, with D559V counted along it

[8] = system: Mast/stem cell growth factor receptor Kit (Homo sapiens), P10721 [V559D,T670I]; test: as §1; conditions: at 1 µM
Mast/stem cell growth factor receptor Kit (Homo sapiens), P10721 [V559D,T670I], sequence (P10721 whole entry V559D/T670I): as the sequence (P10721 whole entry V559D) above, with T670I counted along it

[9] = biological target: T1, Dual specificity protein kinase TTK (Homo sapiens) (UniProt P33981); test: Selectivity interaction (Ambit KINOMEscan and KiNATiv profiling in Jurkat cells) EUB0000090b TTK; type: cell-based; conditions: at 1 µM
T1 sequence (whole entry): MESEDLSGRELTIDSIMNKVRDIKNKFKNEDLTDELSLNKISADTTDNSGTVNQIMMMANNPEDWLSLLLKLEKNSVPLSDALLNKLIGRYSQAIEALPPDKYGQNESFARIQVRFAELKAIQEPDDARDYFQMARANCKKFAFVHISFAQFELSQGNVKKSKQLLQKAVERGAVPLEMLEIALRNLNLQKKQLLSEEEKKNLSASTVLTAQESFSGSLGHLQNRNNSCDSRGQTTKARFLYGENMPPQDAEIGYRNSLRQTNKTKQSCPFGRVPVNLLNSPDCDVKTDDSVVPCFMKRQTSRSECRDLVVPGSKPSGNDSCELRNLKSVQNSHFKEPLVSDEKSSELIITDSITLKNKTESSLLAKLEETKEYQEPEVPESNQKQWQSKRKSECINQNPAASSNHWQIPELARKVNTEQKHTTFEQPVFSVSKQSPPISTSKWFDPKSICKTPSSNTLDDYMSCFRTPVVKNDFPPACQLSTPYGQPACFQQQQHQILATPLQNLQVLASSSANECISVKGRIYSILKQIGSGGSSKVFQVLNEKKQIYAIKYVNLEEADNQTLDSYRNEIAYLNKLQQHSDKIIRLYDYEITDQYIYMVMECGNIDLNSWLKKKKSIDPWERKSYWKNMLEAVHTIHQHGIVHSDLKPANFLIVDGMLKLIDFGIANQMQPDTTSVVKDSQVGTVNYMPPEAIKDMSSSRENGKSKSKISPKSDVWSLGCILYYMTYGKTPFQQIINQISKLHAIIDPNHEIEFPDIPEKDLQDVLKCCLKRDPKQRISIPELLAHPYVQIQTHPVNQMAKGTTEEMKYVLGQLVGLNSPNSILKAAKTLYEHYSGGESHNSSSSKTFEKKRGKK

[10] = biological target: Histone-lysine N-methyltransferase, H3 lysine-36 specific (Homo sapiens) (UniProt Q96L73); test: Selectivity interaction (Methyltransferase screen (radiometric assays, panel of 8 PRMTs, 21 protein lysine methyltransferases, 3 DNA methyltransferases, and one RNA methyltransferase)) EUB0000271b NSD1; conditions: at 10 µM
Histone-lysine N-methyltransferase, H3 lysine-36 specific (Homo sapiens), sequence (Q96L73 whole entry): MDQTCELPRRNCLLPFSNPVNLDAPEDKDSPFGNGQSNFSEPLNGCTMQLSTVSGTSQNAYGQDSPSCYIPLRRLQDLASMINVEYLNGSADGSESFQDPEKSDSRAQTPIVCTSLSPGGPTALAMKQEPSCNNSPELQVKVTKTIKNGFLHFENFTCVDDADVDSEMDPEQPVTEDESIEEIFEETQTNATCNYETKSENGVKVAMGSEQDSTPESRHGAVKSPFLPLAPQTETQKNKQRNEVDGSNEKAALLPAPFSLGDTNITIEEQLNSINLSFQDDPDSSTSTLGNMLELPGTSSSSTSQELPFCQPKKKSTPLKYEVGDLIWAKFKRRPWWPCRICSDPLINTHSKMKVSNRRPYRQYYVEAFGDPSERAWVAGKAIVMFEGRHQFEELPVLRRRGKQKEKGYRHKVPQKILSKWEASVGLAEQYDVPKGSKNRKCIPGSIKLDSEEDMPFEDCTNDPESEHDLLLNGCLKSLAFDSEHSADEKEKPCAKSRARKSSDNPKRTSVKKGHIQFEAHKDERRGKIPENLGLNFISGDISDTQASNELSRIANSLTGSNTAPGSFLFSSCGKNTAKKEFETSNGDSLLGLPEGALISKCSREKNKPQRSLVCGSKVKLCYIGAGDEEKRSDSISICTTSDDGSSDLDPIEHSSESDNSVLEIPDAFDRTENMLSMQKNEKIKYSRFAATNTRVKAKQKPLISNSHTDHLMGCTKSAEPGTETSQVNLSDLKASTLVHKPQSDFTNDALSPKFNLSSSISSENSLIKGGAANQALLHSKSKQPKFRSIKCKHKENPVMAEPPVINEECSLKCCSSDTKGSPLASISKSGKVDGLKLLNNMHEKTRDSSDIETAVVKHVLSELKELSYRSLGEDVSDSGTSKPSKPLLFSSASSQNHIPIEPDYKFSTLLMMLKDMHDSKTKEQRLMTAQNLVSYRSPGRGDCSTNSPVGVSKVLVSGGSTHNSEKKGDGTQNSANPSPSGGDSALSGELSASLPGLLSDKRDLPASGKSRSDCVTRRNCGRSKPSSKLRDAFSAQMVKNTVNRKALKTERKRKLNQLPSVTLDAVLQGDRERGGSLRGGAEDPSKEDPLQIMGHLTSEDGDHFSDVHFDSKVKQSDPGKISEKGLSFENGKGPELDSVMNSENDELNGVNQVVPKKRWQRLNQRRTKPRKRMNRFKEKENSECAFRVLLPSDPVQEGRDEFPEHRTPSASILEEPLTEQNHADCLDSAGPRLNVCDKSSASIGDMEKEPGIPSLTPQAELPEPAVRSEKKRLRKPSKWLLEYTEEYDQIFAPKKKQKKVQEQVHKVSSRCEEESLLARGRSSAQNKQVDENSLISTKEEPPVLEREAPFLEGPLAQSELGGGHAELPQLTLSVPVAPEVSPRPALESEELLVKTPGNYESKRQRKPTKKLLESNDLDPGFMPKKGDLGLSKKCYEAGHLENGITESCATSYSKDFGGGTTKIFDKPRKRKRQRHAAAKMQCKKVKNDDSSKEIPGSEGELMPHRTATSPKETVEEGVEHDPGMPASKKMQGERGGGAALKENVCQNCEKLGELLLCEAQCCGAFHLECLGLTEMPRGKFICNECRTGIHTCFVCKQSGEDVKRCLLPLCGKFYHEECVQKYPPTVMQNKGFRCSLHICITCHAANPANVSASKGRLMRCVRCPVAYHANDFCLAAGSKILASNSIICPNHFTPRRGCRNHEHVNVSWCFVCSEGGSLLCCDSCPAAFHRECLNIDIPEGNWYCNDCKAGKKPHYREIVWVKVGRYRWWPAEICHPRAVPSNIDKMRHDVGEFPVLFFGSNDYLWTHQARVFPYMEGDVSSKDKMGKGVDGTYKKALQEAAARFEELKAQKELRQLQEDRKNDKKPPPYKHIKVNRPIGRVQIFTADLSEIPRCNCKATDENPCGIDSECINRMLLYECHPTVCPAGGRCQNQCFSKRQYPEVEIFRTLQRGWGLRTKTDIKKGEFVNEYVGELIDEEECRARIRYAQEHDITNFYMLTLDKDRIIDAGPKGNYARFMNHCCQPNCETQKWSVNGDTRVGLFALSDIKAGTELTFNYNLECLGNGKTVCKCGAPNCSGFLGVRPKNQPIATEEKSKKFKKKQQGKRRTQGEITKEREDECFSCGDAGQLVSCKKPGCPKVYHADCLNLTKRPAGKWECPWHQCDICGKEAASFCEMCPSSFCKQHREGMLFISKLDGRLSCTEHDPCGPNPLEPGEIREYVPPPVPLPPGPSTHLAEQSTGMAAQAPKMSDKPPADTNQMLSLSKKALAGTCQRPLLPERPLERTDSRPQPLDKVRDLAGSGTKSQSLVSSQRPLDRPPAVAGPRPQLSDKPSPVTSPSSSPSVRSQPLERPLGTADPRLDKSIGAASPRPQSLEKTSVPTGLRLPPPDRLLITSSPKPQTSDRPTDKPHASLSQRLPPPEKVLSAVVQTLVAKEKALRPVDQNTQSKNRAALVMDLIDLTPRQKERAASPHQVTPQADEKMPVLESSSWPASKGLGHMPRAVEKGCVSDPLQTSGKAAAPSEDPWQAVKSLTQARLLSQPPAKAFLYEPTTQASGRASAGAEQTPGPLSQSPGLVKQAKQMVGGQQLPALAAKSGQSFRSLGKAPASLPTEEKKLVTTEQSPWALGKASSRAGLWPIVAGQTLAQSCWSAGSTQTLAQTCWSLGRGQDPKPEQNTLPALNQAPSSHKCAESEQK

[11] = biological target: T2, Ephrin type-A receptor 1 (Homo sapiens) (UniProt P21709); test: Selectivity interaction (KinomeScan (DiscoverX)) EUB0000092b EPHA1; conditions: at 10 µM
T2 sequence (whole entry): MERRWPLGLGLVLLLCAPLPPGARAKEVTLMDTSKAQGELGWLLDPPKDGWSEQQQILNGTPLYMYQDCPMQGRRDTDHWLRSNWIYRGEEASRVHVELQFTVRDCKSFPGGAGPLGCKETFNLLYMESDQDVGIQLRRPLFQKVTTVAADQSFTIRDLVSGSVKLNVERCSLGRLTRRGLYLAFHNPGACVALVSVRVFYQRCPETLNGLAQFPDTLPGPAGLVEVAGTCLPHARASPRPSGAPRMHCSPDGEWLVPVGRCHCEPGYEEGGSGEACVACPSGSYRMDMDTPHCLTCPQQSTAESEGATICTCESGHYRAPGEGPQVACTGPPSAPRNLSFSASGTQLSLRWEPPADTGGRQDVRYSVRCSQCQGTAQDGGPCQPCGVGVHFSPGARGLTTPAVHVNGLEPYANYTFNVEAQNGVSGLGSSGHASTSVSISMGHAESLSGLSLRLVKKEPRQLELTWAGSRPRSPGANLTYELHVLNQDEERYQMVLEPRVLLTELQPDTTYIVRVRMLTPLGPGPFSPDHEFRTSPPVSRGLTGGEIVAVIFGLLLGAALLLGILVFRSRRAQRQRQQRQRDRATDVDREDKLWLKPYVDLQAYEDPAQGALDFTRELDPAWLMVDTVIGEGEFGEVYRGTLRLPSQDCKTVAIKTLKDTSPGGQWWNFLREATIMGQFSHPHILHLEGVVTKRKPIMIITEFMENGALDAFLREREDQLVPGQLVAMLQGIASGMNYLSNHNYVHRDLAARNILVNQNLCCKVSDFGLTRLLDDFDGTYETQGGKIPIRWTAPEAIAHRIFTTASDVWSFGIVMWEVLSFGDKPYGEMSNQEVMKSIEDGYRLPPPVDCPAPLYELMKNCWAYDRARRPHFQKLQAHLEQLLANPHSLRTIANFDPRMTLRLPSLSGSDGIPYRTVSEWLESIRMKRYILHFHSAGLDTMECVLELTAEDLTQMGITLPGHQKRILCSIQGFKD

[12] = biological target: T3, Dual specificity mitogen-activated protein kinase kinase 6 (Homo sapiens) (UniProt P52564); test: Selectivity interaction (Kinase panel (DSF assay)) EUB0001558a MAP2K6
T3 sequence (whole entry): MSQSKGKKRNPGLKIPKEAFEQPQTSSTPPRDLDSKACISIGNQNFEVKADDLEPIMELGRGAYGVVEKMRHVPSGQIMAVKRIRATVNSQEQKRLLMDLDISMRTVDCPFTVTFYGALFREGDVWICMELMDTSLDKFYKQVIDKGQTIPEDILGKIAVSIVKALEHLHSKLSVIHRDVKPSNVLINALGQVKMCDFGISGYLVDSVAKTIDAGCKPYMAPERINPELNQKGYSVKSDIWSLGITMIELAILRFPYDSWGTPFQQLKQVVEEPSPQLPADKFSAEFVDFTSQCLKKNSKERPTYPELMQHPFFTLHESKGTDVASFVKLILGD

Mast/stem cell growth factor receptor Kit (Homo sapiens), P10721 [L576P], sequence (P10721 whole entry L576P): as the sequence (P10721 whole entry V559D) above, with D559V, L576P counted along it
Mast/stem cell growth factor receptor Kit (Homo sapiens), P10721 [A829P], sequence (P10721 whole entry A829P): as the sequence (P10721 whole entry V559D) above, with D559V, A829P counted along it
Mast/stem cell growth factor receptor Kit (Homo sapiens), P10721 [D816V], sequence (P10721 whole entry D816V): as the sequence (P10721 whole entry V559D) above, with D559V, D816V counted along it

Work on `COc1cc(Nc2nc(C)cc(-c3cnn4nc(OC)ccc34)n2)cc(C(F)(F)F)c1` yielded a % of control [1] of 96%, a % of control [2] of 84% and a % of control [3] of 100%. It also gave a % of control [4] of 80%, a % of control [5] of 62% and a % of control [6] of 66%. For the same compound, the % of control [7] was 89% and the % of control [8] was 85%.

`CN(C)C/C=C/C(=O)Nc1ccc(C(=O)N2CCCC(Nc3ncc(Cl)c(-c4c[nH]c5ccccc45)n3)C2)cc1` (configuration not stated) was tested, and the % of control [9] was 81%.

Work on `Cc1cc(C)cc([C@@H]2c3cc(C)ccc3NC(=O)CN2C(=O)c2ccc(Br)s2)c1` yielded a % of activity [10] of 105%.

`CCC(=O)N1CCN(c2ccc(-n3c(=O)ccc4cnc5ccc(-c6cnc7ccccc7c6)cc5c43)cc2C(F)(F)F)CC1` was tested, and the % of control [11] was 62%.

For `CC(C)(O)[C@H](F)CN1Cc2cc(NC(=O)c3cnn4cccnc34)c(N3CCOCC3)cc2C1=O`, the dTM [12] was 0.3 K.
